Results as given in patent publication US20250215029A1 (Recludix Pharma, Inc., priority 2022, published 2025).
Like-named read-outs stand apart in the source and are kept apart here.

How the values were obtained:
[1] = target: T1, Recombinant STAT3 protein (STAT3 (G127-I722)) (Homo sapiens, UniProt P40763); assay: STAT3 Fluorescence Polarization (FP) Assay; type: binding; conditions: probe 5-FAM-GpYLPQTV-NH2 2 nM, 45-minute incubation
T1 construct: Recombinant STAT3 protein (STAT3 (G127-I722))
In short: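 Displacement of a 2 nM 5-FAM-labelled pY peptide (GpYLPQTV) from 25 nM recombinant STAT3 (G127-I722) was monitored by fluorescence polarization. Incubation lasted 45 min at room temperature in pH 7.4 HEPES buffer containing 1% DMSO.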

[2] = target: T2, Recombinant STAT6 protein (STAT6 (W123-T658)) (Homo sapiens, UniProt P42226); assay: STAT6 Fluorescence Polarization (FP) Assay; type: binding; conditions: 45-minute incubation
T2 construct: Recombinant STAT6 protein (STAT6 (W123-T658))
T2 sequence (P42226 123-658): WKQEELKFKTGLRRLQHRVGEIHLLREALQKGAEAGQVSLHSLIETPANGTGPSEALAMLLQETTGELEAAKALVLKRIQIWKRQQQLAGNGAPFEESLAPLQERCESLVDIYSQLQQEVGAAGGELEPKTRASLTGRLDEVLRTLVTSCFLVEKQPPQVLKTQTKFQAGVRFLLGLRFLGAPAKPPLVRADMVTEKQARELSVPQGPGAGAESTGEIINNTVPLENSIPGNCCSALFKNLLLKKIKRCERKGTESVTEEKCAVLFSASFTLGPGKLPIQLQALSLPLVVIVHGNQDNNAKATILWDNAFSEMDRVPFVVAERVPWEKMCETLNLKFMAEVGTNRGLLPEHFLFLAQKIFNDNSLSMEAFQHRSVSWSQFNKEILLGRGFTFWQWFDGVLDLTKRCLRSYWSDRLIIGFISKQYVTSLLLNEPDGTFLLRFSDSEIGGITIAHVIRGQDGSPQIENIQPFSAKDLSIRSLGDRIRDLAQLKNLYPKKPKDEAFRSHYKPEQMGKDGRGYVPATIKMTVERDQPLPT
In short: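 Protein-probe mix (250 nM STAT6 W123-T658, 2 nM 5-FAM-pTyr peptide) in 10 mM HEPES pH 7.4, 50 mM NaCl, 1 mM EDTA, 0.05% Tween 20, 2 mM DTT; added to compound dilution series, 1% DMSO final; 45 min RT; FP read; IC50 via nonlinear regression.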

[3] = STAT3 (G127-I722) 25 nM, read-out: STAT3 (FP assay IC50 class)
[4] = STAT6 (W123-T658) 250 nM, probe 5-FAM-Ap[…]-NH2 2 nM, read-out: STAT6 (FP assay IC50 class)
[5] = STAT3 25 nM, read-out: STAT3 (FP assay IC50)
[6] = STAT6 250 nM, probe 5-FAM-Ap[…]-NH2 2 nM, read-out: STAT6 (FP assay IC50)

T1 sequence (P40763 127-722): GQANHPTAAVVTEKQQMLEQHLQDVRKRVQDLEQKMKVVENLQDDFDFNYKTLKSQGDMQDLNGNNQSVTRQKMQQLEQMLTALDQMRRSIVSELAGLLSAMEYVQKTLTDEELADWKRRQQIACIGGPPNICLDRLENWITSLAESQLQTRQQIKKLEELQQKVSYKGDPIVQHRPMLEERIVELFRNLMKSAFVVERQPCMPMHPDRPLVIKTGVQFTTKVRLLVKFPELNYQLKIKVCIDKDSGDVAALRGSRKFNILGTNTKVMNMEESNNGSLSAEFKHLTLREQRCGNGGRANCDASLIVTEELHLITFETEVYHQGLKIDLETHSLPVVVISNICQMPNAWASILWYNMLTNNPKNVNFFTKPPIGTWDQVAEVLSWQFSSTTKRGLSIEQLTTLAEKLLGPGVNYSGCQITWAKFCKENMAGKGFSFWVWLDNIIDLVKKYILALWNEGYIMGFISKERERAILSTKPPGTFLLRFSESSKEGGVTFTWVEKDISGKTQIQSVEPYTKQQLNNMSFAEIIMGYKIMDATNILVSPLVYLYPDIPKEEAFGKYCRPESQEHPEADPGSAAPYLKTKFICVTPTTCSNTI

| SMILES | IC50 [1, 3] [nM] | IC50 [2, 4] [nM] | IC50 [1, 5] [nM] | IC50 [2, 6] [nM] | IC50 ([2]; STAT6 (W123-T658) 250 nM, probe 5-FAM-ApYKPFQDLI-NH2 2 nM, read-out: STAT6 (FP assay IC50 class)) [nM] |
| --- | --- | --- | --- | --- | --- |
| Cn1cncc(C2CN(C(=O)[C@@H]3CC[C@@H]4CCC[C@H](NC(=O)c5cc6cc(C(F)P(=O)(O)O)ccc6s5)C(=O)N43)C2)c1=O (stereo partly drawn) [Compound 624, (fluoro(2-(((3S,6S,9aS)-3-(3-(1-methyl-6-oxo-1,6-dihydropyrimidin-5-yl)azetidine-1-carbonyl)-5-oxooctahydro-1H-pyrrolo[1,2-a]azepin-6-yl)carbamoyl)benzo [b]thiophen-5-yl)methyl) phosphonic acid] | 1000 to 10000 | 3000 to 30000 | – | – | – |
| O=C(N[C@H]1CCC[C@H]2CC[C@@H](C(=O)N3CC(c4ccccc4N4CCOCC4)C3)N2C1=O)c1cc2cc(C(F)P(=O)(O)O)ccc2s1 (stereo partly drawn) [Compound 670, (fluoro(2-(((3S,6S,9aS)-3-(3-(2-morpholinophenyl)azetidine-1-carbonyl)-5-oxooctahydro-1H-pyrrolo[1,2-a]azepin-6-yl)carbamoyl)benzo [b]thiophen-5-yl)methyl) phosphonic acid] | 100 to 1000 | 3000 to 30000 | – | – | – |
| N#C[C@H]1CN(C(=O)[C@@H]2CC[C@@H]3CCCC[C@H](NC(=O)c4cc5cc(C(F)(F)P(=O)(O)O)ccc5s4)C(=O)N32)C[C@@H]1CC1CCOCC1 (racemic) [Compound 88, ((2-(((3S,6S,10aS)-3-(rel-(trans)-3-cyano-4-((tetrahydro-2H-pyran-4-yl)methyl)pyrrolidine-1-carbonyl)-5-oxodecahydropyrrolo [1,2-a]azocin-6-yl)carbamoyl)benzo[b]thiophen-5-yl)difluoromethyl) phosphonic acid] | – | – | 1000 to 10000 | 300 to 3000 | – |
| Cn1ccc(C2CN(C(=O)[C@@H]3CC[C@@H]4CCC[C@H](NC(=O)c5cc6cc([C@@H](F)P(=O)(O)O)ccc6s5)C(=O)N43)C2)cc1=O (single isomer, unassigned) [Compound 708] | 100 to 1000 | 3000 to 30000 | – | – | – |
| Cc1ncccc1C1CN(C(=O)[C@@H]2CC[C@@H]3CCC[C@H](NC(=O)c4cc5cc(C(F)(F)P(=O)(O)O)ccc5s4)C(=O)N32)C1 [Compound 775, (difluoro(2-(((3S,6S,9aS)-3-(3-(2-methylpyridin-3-yl)azetidine-1-carbonyl)-5-oxooctahydro-1H-pyrrolo[1,2-a]azepin-6-yl)carbamoyl)benzo [b]thiophen-5-yl)methyl) phosphonic acid] | < 100 | 300 to 3000 | – | – | – |
| O=C(N[C@H]1CCC[C@H]2CC[C@@H](C(=O)N3CC(c4cnccc4C4CC4)C3)N2C1=O)c1cc2cc(CP(=O)(O)O)ccc2s1 [Compound 517, ((2-(((3S,6S,9aS)-3-(3-(4-cyclopropylpyridin-3-yl)azetidine-1-carbonyl)-5-oxooctahydro-1H-pyrrolo[1,2-a]azepin-6-yl)carbamoyl)benzo[b]thiophen-5-yl)methyl)phosphonic acid] | 100 to 1000 | 3000 to 30000 | – | – | – |
| Cn1ccc([C@@H]2CN(C(=O)[C@@H]3CC[C@@H]4CCCC[C@H](NC(=O)c5cc6cc(C(F)P(=O)(O)O)ccc6s5)C(=O)N43)C[C@H]2C#N)cc1=O (single isomer, unassigned) [Compound 227] | 100 to 1000 | 300 to 3000 | – | – | – |
| O=C(N[C@H]1CCC[C@H]2CC[C@@H](C(=O)N3CC(c4ccccc4F)C3)N2C1=O)c1cc2cc(C(F)P(=O)(O)O)ccc2s1 (stereo partly drawn) [Compound 565, (fluoro(2-(((3S,6S,9aS)-3-(3-(2-fluorophenyl)azetidine-1-carbonyl)-5-oxooctahydro-1H-pyrrolo[1,2-a]azepin-6-yl)carbamoyl)benzo[b]thiophen-5-yl)methyl)phosphonic acid] | 100 to 1000 | 3000 to 30000 | – | – | – |
| O=C(N[C@H]1CCCC[C@H]2CC[C@@H](C(=O)N3CC(c4cccnc4)CC34CC4)N2C1=O)c1cc2cc([C@@H](F)P(=O)(O)O)ccc2s1 (stereo in doubt) [Compound 910, ((S)-fluoro(2-(((3S,6S,10aS)-5-oxo-3-((R)-6-(pyridin-3-yl)-4-azaspiro[2.4]heptane-4-carbonyl)decahydropyrrolo[1,2-a]azocin-6-yl)carbamoyl)benzo [b]thiophen-5-yl)methyl) phosphonic acid] | 1000 to 10000 | – | – | – | ≤ 300 |
| O=C(N[C@H]1CCCC[C@H]2CC[C@@H](C(=O)N3CC(F)(c4ccccc4)C3)N2C1=O)c1cc2cc(C(F)(F)P(=O)(O)O)ccc2s1 [Compound 53, (difluoro(2-(((3S,6S,10aS)-3-(3-fluoro-3-phenylazetidine-1-carbonyl)-5-oxodecahydropyrrolo [1,2-a]azocin-6-yl)carbamoyl)benzo[b]thiophen-5-yl)methyl) phosphonic acid] | – | – | < 100 | 300 to 3000 | – |
| N#C[C@H]1CN(C(=O)[C@@H]2CC[C@@H]3CCCC[C@H](NC(=O)c4cc5cc(C(F)(F)P(=O)(O)O)ccc5s4)C(=O)N32)C[C@H]1c1ccccc1 (relative stereo) [Compound 92, ((2-(((3S,6S,10aS)-3-(rel-(trans)-3-cyano-4-phenylpyrrolidine-1-carbonyl)-5-oxodecahydropyrrolo [1,2-a]azocin-6-yl)carbamoyl)benzo[b]thiophen-5-yl)difluoromethyl) phosphonic acid] | – | – | 100 to 1000 | 300 to 3000 | – |
| Cn1ccc(N2C(=O)N(C(=O)[C@@H]3CC[C@@H]4CCCC[C@H](NC(=O)c5cc6cc(C(F)P(=O)(O)O)ccc6s5)C(=O)N43)C3(CC3)C2=O)cc1=O (stereo partly drawn) [Compound 569, (fluoro(2-(((3S,6S,10aS)-3-(6-(1-methyl-2-oxo-1,2-dihydropyridin-4-y1)-5,7-dioxo-4,6-diazaspiro[2.4]heptane-4-carbonyl)-5-oxodecahydropyrrolo[1,2-a]azocin-6-yl)carbamoyl)benzo[b]thiophen-5-yl)methyl)phosphonic acid] | 1000 to 10000 | 300 to 3000 | – | – | – |
| N#C[C@@H]1CN(C(=O)[C@@H]2CC[C@@H]3CCCC[C@H](NC(=O)c4cc5cc(C(F)(F)P(=O)(O)O)ccc5s4)C(=O)N32)C[C@H]1C1CC1 (relative stereo) [Compound 102, ((2-(((3S,6S,10aS)-3-(rel-(trans)-3-cyano-4-cyclopropyl-pyrrolidine-1-carbonyl)-5-oxodecahydropyrrolo [1,2-a]azocin-6-yl)carbamoyl)benzo[b]thiophen-5-yl)difluoromethyl) phosphonic acid] | – | – | 100 to 1000 | 300 to 3000 | – |
| CCC[C@H]1CC[C@H](NC(=O)c2cc3cc(C(F)P(=O)(O)O)ccc3s2)C(=O)N2[C@H](CC[C@H]2C(=O)N2C[C@@H](C#N)[C@H](c3ccccc3)C2)C1 (single isomer, unassigned) [Compound 240] | 1000 to 10000 | ≤ 300 | – | – | – |
| COc1ccncc1C1CN(C(=O)[C@@H]2CC[C@@H]3CCC[C@H](NC(=O)c4cc5cc([C@H](F)P(=O)(O)O)ccc5s4)C(=O)N32)C1 (single isomer, unassigned) [Compound 747] | < 100 | 3000 to 30000 | – | – | – |
| C[C@H]1C[C@H]2CC[C@@H](C(=O)N3C[C@H](c4ccccc4)[C@@H](C#N)C34CC4)N2C(=O)[C@@H](NC(=O)c2cc3cc([C@H](F)P(=O)(O)O)ccc3s2)C1 [Compound 849, ((R)-(2-(((3S,6S,8R,9aR)-3-((6S,7R)-7-cyano-6-phenyl-4-azaspiro[2.4]heptane-4-carbonyl)-8-methyl-5-oxooctahydro-1H-pyrrolo[1,2-a]azepin-6-yl)carbamoyl)benzo [b]thiophen-5-yl)fluoromethyl) phosphonic acid] | 1000 to 10000 | ≤ 300 | – | – | – |
| O=C(N[C@H]1CCC[C@H]2CC[C@@H](C(=O)N3CCC(c4cccnc4)C3)N2C1=O)c1cc2cc(CP(=O)(O)O)ccc2s1 (stereo partly drawn) [Compound 508, ((2-(((3S,6S,9aS)-5-oxo-3-(3-(pyridin-3-yl)pyrrolidine-1-carbonyl)octahydro-1H-pyrrolo[1,2-a]azepin-6-yl)carbamoyl)benzo[b]thiophen-5-yl)methyl)phosphonic acid] | 1000 to 10000 | 3000 to 30000 | – | – | – |
| O=C(N[C@H]1CCC[C@H]2CC[C@@H](C(=O)N3CC(c4ccnc(O)n4)C3)N2C1=O)c1cc2cc(C(F)P(=O)(O)O)ccc2s1 (stereo partly drawn) [Compound 927, (fluoro(2-(((3S,6S,9aS)-3-(3-(2-hydroxypyrimidin-4-yl)azetidine-1-carbonyl)-5-oxooctahydro-1H-pyrrolo[1,2-a]azepin-6-yl)carbamoyl)benzo [b]thiophen-5-yl)methyl) phosphonic acid] | < 100 | 3000 to 30000 | – | – | – |
